The values below come from patent US7022737B2, “Manipulating nitrosative stress to kill pathologic microbes, pathologic helminths and pathologically proliferating cells or to upregulate nitrosative stress defenses” (Duke University, priority 1996, dated 2006).

In one assay the test system is Giardia lamblia. The assay can be described thus: Patient with Giardia lamblia infection. It is filed as in vivo. The settings on record: 4 mmol/kg four times a day p.o. with metronidazole 500 mg twice a day p.o. for five days.
The test system of assay [1] is restenosis. As to the kind of experiment: Patients with coronary stenosis treated to prevent restenosis. It is filed as in vivo. The source says: BSO therapy is continued for one week.
A person with blue eyes and gray hair presents with chest pain. […] The patient undergoes balloon angioplasty and placement of a Palmaz-Schatz stent, which is P^32-implanted and coated with a cyclodextran polymer to which BSO is attached by an ester linkage.
A patient similar to the one described above undergoes balloon angioplasty and placement of a Palmaz-Schatz stent which is coated with cyclodextran polymer to which ethyl maleate is attached by an ester linkage. […]
A person with restenosis six months post angioplasty has a Palmaz-Schatz stent placed. The stent is coated with a porous polymer containing 10% of the siderophore ferrioxamine B and 0.1% each of interleukin-1 and interferon-gamma. The latter agents induce the local expression of the inducible isoform of nitric oxide synthase. […]

Assay [2] relates to benign prostatic hypertrophy. The assay can be described thus: Patients with benign prostatic hypertrophy. It is filed as in vivo. The source says: A person presents with a history of urinary hesitancy and multiple awakenings during the night. They are given a diagnosis of benign prostatic hypertrophy. Under stereotactic guidance, the patient's enlarged prostate gland is implanted with several porus polymer pellets designed to slowly release L-buthionine-S-sulfoximine (1 μmol/hr) and S-nitrosocysteine (1 μmol/hr). […] They then have nearly normal urine flow and usually wakes no more than once per night.
A similar patient with benign prostatic hypertrophy and very marked enlargement of their prostate is treated with NO-substituted finasteride (NO-substituted Proscar; 5 mg/day). NO-substitution is accomplished by replacement of the tert-butyl amine moiety of finasteride with S-nitroso-β-thio-tert-butyl amine.
A person with benign prostatic hypertrophy is treated with Finisteride (Proscar: 5 mg/day) and oral buthionine-S-sulfoximine at a dose of 10 mmol/kg four time/day.

The next assay concerns herpes labialis. As to the kind of experiment: Patient with recurrent herpes labialis. It is filed as in vivo. The settings on record: in Denavir (pencicyclovir cream), topically every two hours while awake. The source says: A homosexually active person developed a recurrent herpes labialis (cold sore) on their lips and face. Therapy with Denavir (pencicyclovir cream) that contains buthionine sulfoximine is applied topically every two hours while awake.

Assay [3] deals with metastatic malignant melanoma. The assay can be described thus: Patient with metastatic malignant melanoma. The settings on record: L-buthionine-S-sulfoximine 2 mmol/kg p.o. every 4 hours and hydroxyurea 10 mg/kg p.o., one week. It is filed as in vivo. The procedure: A person […] and a history of surgery five years previously to remove malignant melanotic nevi from their upper back and chest is found to have blood in their stool on routine physical examination. […] The patient is administered L-buthionine-S-sulfoximine (2 mmol/kg) p.o. every 4 hours for one week and is given 10 mg/kg of hydroxyurea p.o. 1 hour after every third dose of L-buthionine-S-sulfoximine. […] The patient shown no further evidence of metastases during a six month follow-up.

Another assay relates to trypanosomes. As to the kind of experiment: Patient with trypanosome infection. It is filed as in vivo. The settings on record: L-buthionine-S-sulfoximine 3 mmol/kg p.o. every 4 hours and S-nitrosoglutathione iv 10 mg/kg every 8 hours, one week. The procedure: A person presents with high fever, moderate lymphadenopathy and reports that they have lost 40 pounds in the last month, two months after returning from a safari in sub-Saharan Africa. On questioning, the patient reports having developed during the safari an ulcer on their forearm two days following a bite by a fly. […] The patient is hospitalized and given L-buthionine-S-sulfoximine at a dose of 3 mmol/kg p.o. every 4 hours for one week. In addition, the patient receives S-nitrosoglutathione iv at a dose of 10 mg/kg every 8 hours for one week.

For assay [4], the target named is T1, gamma-glutamylcysteinyl synthetase (gamma-GCS) (Rattus norvegicus, UniProt P19468).
T1 sequence (P19468 1-637): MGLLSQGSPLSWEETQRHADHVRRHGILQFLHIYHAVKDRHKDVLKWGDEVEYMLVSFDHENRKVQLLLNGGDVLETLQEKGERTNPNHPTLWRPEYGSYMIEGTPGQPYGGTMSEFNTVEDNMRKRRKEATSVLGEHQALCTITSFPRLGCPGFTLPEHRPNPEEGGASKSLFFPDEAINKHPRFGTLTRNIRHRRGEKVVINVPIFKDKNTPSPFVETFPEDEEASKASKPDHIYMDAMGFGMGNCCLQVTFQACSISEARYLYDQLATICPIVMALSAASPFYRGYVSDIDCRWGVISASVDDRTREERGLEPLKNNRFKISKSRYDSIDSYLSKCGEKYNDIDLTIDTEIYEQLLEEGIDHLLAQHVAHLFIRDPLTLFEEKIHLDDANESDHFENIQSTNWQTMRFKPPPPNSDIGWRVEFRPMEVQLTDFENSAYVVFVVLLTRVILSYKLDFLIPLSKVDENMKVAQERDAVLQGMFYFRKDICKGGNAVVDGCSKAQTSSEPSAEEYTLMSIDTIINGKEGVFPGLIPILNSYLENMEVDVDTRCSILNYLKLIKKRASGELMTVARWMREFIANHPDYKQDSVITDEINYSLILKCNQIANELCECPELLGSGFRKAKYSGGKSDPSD
T1 sequence (P48508 1-274 partner): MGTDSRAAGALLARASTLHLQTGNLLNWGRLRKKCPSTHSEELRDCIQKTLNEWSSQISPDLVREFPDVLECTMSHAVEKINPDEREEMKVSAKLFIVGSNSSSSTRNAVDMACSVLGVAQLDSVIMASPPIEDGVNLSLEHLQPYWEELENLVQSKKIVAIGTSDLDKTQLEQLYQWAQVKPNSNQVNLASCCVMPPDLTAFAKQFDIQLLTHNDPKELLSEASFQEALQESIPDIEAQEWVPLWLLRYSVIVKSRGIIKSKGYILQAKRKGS
The settings on record: mammalian systems, literature; cited from earlier work.

Assay [5] deals with restenosis. As to the kind of experiment: Patients with coronary stenosis treated to prevent restenosis. It is filed as in vivo. The settings on record: BSO 4 mmol/kg four times a day intracoronary for one week, 32P-implanted Palmaz-Schatz stent.

The structures appear in SMILES notation.

Turning to `CCCCS(=N)(=O)CC[C@H](N)C(=O)O` (stereo partly drawn) [L-buthionine-S-sulfoximine], the clinical outcome is on record as “stool culture becomes negative for Giardia after five days” with Giardia lamblia; “clinical restenosis does not occur” in the assay on restenosis [1] (P^32-implanted stent coated with cyclodextran polymer with BSO attached by ester linkage); “repeat angiogram at six months shows no restenosis” with restenosis [1] (verapamil 80 mg three times a day p.o., BSO 4 mmol/kg i.v. four times a day, NO-releasing polymer stent); “symptoms of hesitancy improve significantly over two months” in assay [2] (Finisteride 5 mg/day and oral buthionine-S-sulfoximine 10 mmol/kg four time/day); “symptoms improve over a period of three weeks” in assay [2] (prostate-implanted polymer pellets releasing each agent at 1 μmol/hr); “blood smear is free of trypanosomes” with trypanosomes. For the same compound, in the assay on restenosis [5], the clinical outcome was “repeat of their angiogram shows no restenosis”. In addition, the “mean duration of the lesion versus Denavir without BSO” value in the assay on herpes labialis was “half the time shorter”. For the same compound, the “reduction in size of metastatic tumor” value in assay [3] was 30%. Besides, the “inhibition of gamma-GCS” value in assay [4] is “most effectively inhibited”.
